How the values were obtained:
[1] = cited from earlier work
[2] = test system: human C3A liver cell cultures; assay: Microarray differential expression of cDNAs in treated human C3A liver cell cultures; format: cell-based; conditions: change vs untreated C3A cells
Text: Incyte clones represent template sequences derived from the LIFESEQ GOLD assembled human sequence database (Incyte Genomics). In cases where more than one clone was available for a particular template, the 5′-most clone in the template was used on the microarray. The GENEALBUM GEM series 1-6 microarrays (Incyte Genomics) contain 52,616 array elements which represent 17,472 annotated clusters and 35,144 unannotated clusters. The HUMAN GENOME GEM series 1-3 microarrays (Incyte Genomics) contain 28,626 array elements which represent 10,068 annotated clusters and 18,558 unannotated clusters. For the UNIGEM series microarrays (Incyte Genomics), Incyte clones were mapped to non-redundant Unigene clusters (Unigene database (build 46), NCBI; Shuler (1997) J Mol Med 75:694-698), and the 5′ clone with the strongest BLAST alignment (at least 90% identity and 100 bp overlap) was chosen, verified, and used in the construction of the microarray. The UNIGEM V microarray (Incyte Genomics) contains 7075 array elements which represent 4610 annotated genes and 2,184 unannotated clusters.
To construct microarrays, cDNAs were amplified from bacterial cells using primers complementary to vector sequences flanking the cDNA insert. […] Amplified cDNAs were then purified using […]-400 columns (APB). Purified cDNAs were immobilized on polymer-coated glass slides. Glass microscope slides (Corning, Corning N.Y.) were cleaned by ultrasound in 0.1% SDS and acetone, with extensive distilled water washes between and after treatments. Glass slides were etched in 4% hydrofluoric acid (VWR Scientific Products, West Chester Pa.), washed thoroughly in distilled water, and coated with 0.05% aminopropyl silane (Sigma Aldrich) in 95% ethanol. Coated slides were cured in a 110° C. oven. cDNAs were applied to the coated glass substrate using a procedure described in U.S. Pat. No. 5,807,522. One microliter of the cDNA at an average concentration of 100 ng/ul was loaded into the open capillary printing element by a high-speed robotic apparatus which then deposited about 5 nl of cDNA per slide.
Microarrays were UV-crosslinked using a […] UV-crosslinker (Stratagene), and then washed at room temperature once in 0.2% SDS and three times in distilled water. Non-specific binding sites were blocked by incubation of microarrays in 0.2% casein in phosphate buffered saline (Tropix, Bedford Mass.) for 30 minutes at 60° C. followed by washes in 0.2% SDS and distilled water as before.
Early confluent C3A cells (ATTC, Manassas Va.) were treated with captopril (0.5, 2, 48, and 60 μg/ml) for 1, 3, and 6 hours. Early confluent C3A cells were treated with enalapril (0.5, 2, 48, and 60 μg/ml) for 1, 3, and 6 hours. Early confluent C3A cells were treated with LY294002 (0.5, 2, 15, and 25 μg/ml) for 1, 3, and 6 hours. Early confluent C3A cells were starved of insulin for 3 days prior to treatment, then treated with LY294002 (10 μM) for 2, 24, 36, and 72 hours in the presence of insulin. Early confluent C3A cells were treated with DES (1, 10, and 100 μM) for 1, 3, and 6 hours. Early confluent C3A cells were treated with dexamethasone (1 and 20 μM) for 0, 2, 6, and 24 hours. Early confluent C3A cells were treated with MCA (0.5 and 10 μM) for 2, 6, and 24 hours. In all cases mRNA from untreated early confluent cells were prepared in parallel as described below.
Cells were harvested and lysed in 1 ml of TRIZOL reagent (5×10^6 cells/ml; Life Technologies). The lysates were vortexed thoroughly and incubated at room temperature for 2-3 minutes and extracted with 0.5 ml chloroform. The extract was mixed, incubated at room temperature for 5 minutes, and centrifuged at 15,000 rpm for 15 minutes at 4° C. The aqueous layer was collected and an equal volume of isopropanol was added.

**Q.** With CCOC(=O)[C@H](CCc1ccccc1)N[C@@H](C)C(=O)N1CCC[C@H]1C(=O)O [Enalapril] as the molecule, how does the “time of peak plasma concentration” value ([1]; enalapril given orally) read?
**A.** within an hour

**Q.** What about the oral bioavailability ([1]; given orally, not reduced by food) of the same molecule?
**A.** about 60%

**Q.** What about the half-life ([1]; in vivo) of the same molecule?
**A.** 1.3 h

**Q.** And the “expression level of cDNA clone 63038” value [2]?
**A.** −2.97

**Q.** And the “expression level of cDNA clone 118501” value [2]?
**A.** 6.06

**Q.** And the “expression level of cDNA clone 160822” value [2]?
**A.** 2.39

**Q.** And the “expression level of cDNA clone 279898” value [2]?
**A.** 4.08

**Q.** What about the “expression level of cDNA clone 630625” value [2] of the same molecule?
**A.** 2.51

**Q.** What about the “expression level of cDNA clone 1308112” value [2] of the same molecule?
**A.** 2.14

**Q.** And the “expression level of cDNA clone 1368834” value [2]?
**A.** 2.43

**Q.** And the “expression level of cDNA clone 1379063” value [2]?
**A.** −2.44

**Q.** And the “expression level of cDNA clone 1448718” value [2]?
**A.** −3.91

**Q.** And the “expression level of cDNA clone 1696224” value [2]?
**A.** 3.97

**Q.** What about the “expression level of cDNA clone 1711151” value [2] of the same molecule?
**A.** 2.48

**Q.** And the “expression level of cDNA clone 1861456” value [2]?
**A.** −2.51

**Q.** What about the “expression level of cDNA clone 1930235” value [2] of the same molecule?
**A.** 3

**Q.** What about the “expression level of cDNA clone 1975268” value [2] of the same molecule?
**A.** −2.75

**Q.** And the “expression level of cDNA clone 1998269” value [2]?
**A.** 2.27

**Q.** And the “expression level of cDNA clone 2055569” value [2]?
**A.** −3.1

**Q.** And the “expression level of cDNA clone 2123516” value [2]?
**A.** 3.71

**Q.** And the “expression level of cDNA clone 2513883” value [2]?
**A.** 3.82

**Q.** What about the “expression level of cDNA clone 2757583” value [2] of the same molecule?
**A.** 4.13

**Q.** And the “expression level of cDNA clone 2884613” value [2]?
**A.** 2.51

**Q.** And the “expression level of cDNA clone 2921991” value [2]?
**A.** −4.67

**Q.** And the “expression level of cDNA clone 2933775” value [2]?
**A.** 4.73

**Q.** And the “expression level of cDNA clone 2955163” value [2]?
**A.** 2.33

**Q.** And the “expression level of cDNA clone 4556538” value [2]?
**A.** 3.02
